# Results taken from the NIST ThermoML archive (doi:10.1021/je020153x).
# Numbers after ± are expanded uncertainties.
# Experiment: mn = molality of the nth substance listed, in mol/kg
# Conditions: 101.3 kPa, Liquid; for viscosity: Capillary tube (Ostwald / Ubbelohde) method; for mass density: Vibrating tube method
structure (smiles),measurement,setting,value
O=C[C@H](O)[C@@H](O)[C@H](O)[C@H](O)CO [D-glucose] + O,viscosity,"293.15 K, m1 = 0.5",1.256 ± 0.011 mPa·s
same,viscosity,"293.15 K, m1 = 1",1.587 ± 0.014 mPa·s
same,viscosity,"293.15 K, m1 = 1.5",1.993 ± 0.018 mPa·s
same,viscosity,"293.15 K, m1 = 2",2.512 ± 0.023 mPa·s
same,viscosity,"293.15 K, m1 = 2.5",3.159 ± 0.029 mPa·s
same,viscosity,"293.15 K, m1 = 3",3.947 ± 0.037 mPa·s
same,viscosity,"293.15 K, m1 = 3.5",4.96 ± 0.046 mPa·s
same,viscosity,"293.15 K, m1 = 4",6.131 ± 0.056 mPa·s
same,mass density,"293.15 K, m1 = 0.5",1030.7 ± 0.2 kg/m3
same,mass density,"293.15 K, m1 = 1",1059.7 ± 0.2 kg/m3
same,mass density,"293.15 K, m1 = 1.5",1085.4 ± 0.3 kg/m3
same,mass density,"293.15 K, m1 = 2",1108.8 ± 0.3 kg/m3
same,mass density,"293.15 K, m1 = 2.5",1129.8 ± 0.3 kg/m3
same,mass density,"293.15 K, m1 = 3",1148.8 ± 0.3 kg/m3
same,mass density,"293.15 K, m1 = 3.5",1166.3 ± 0.3 kg/m3
same,mass density,"293.15 K, m1 = 4",1182.2 ± 0.3 kg/m3
same,viscosity,"303.15 K, m1 = 0.5",0.988 ± 0.009 mPa·s
same,viscosity,"303.15 K, m1 = 1",1.231 ± 0.011 mPa·s
same,viscosity,"303.15 K, m1 = 1.5",1.523 ± 0.014 mPa·s
same,viscosity,"303.15 K, m1 = 2",1.89 ± 0.018 mPa·s
same,viscosity,"303.15 K, m1 = 2.5",2.341 ± 0.022 mPa·s
same,viscosity,"303.15 K, m1 = 3",2.873 ± 0.028 mPa·s
same,viscosity,"303.15 K, m1 = 3.5",3.553 ± 0.035 mPa·s
same,viscosity,"303.15 K, m1 = 4",4.309 ± 0.043 mPa·s
same,mass density,"303.15 K, m1 = 0.5",1027.7 ± 0.2 kg/m3
same,mass density,"303.15 K, m1 = 1",1056.4 ± 0.2 kg/m3
same,mass density,"303.15 K, m1 = 1.5",1081.8 ± 0.3 kg/m3
same,mass density,"303.15 K, m1 = 2",1105 ± 0.3 kg/m3
same,mass density,"303.15 K, m1 = 2.5",1125.7 ± 0.3 kg/m3
same,mass density,"303.15 K, m1 = 3",1144.6 ± 0.3 kg/m3
same,mass density,"303.15 K, m1 = 3.5",1161.9 ± 0.3 kg/m3
same,mass density,"303.15 K, m1 = 4",1177.7 ± 0.3 kg/m3
same,viscosity,"313.15 K, m1 = 0.5",0.801 ± 0.007 mPa·s
same,viscosity,"313.15 K, m1 = 1",0.985 ± 0.009 mPa·s
same,viscosity,"313.15 K, m1 = 1.5",1.205 ± 0.011 mPa·s
same,viscosity,"313.15 K, m1 = 2",1.475 ± 0.014 mPa·s
same,viscosity,"313.15 K, m1 = 2.5",1.804 ± 0.017 mPa·s
same,viscosity,"313.15 K, m1 = 3",2.182 ± 0.021 mPa·s
same,viscosity,"313.15 K, m1 = 3.5",2.66 ± 0.026 mPa·s
same,viscosity,"313.15 K, m1 = 4",3.175 ± 0.033 mPa·s
same,mass density,"313.15 K, m1 = 0.5",1024 ± 0.2 kg/m3
same,mass density,"313.15 K, m1 = 1",1052.4 ± 0.2 kg/m3
same,mass density,"313.15 K, m1 = 1.5",1077.6 ± 0.2 kg/m3
same,mass density,"313.15 K, m1 = 2",1100.6 ± 0.3 kg/m3
same,mass density,"313.15 K, m1 = 2.5",1121.2 ± 0.3 kg/m3
same,mass density,"313.15 K, m1 = 3",1139.9 ± 0.3 kg/m3
same,mass density,"313.15 K, m1 = 3.5",1157.1 ± 0.3 kg/m3
same,mass density,"313.15 K, m1 = 4",1172.7 ± 0.3 kg/m3
[Cl-].[Na+] [sodium chloride] + O,viscosity,"293.15 K, m1 = 0.5",1.041 ± 0.009 mPa·s
same,viscosity,"293.15 K, m1 = 1",1.087 ± 0.01 mPa·s
same,viscosity,"293.15 K, m1 = 1.5",1.138 ± 0.01 mPa·s
same,viscosity,"293.15 K, m1 = 2",1.196 ± 0.01 mPa·s
same,viscosity,"293.15 K, m1 = 2.5",1.264 ± 0.011 mPa·s
same,viscosity,"293.15 K, m1 = 3",1.333 ± 0.012 mPa·s
same,viscosity,"293.15 K, m1 = 3.5",1.411 ± 0.012 mPa·s
same,viscosity,"293.15 K, m1 = 4",1.499 ± 0.013 mPa·s
same,mass density,"293.15 K, m1 = 0.5",1018.6 ± 0.2 kg/m3
same,mass density,"293.15 K, m1 = 1",1037.8 ± 0.2 kg/m3
same,mass density,"293.15 K, m1 = 1.5",1056.3 ± 0.2 kg/m3
same,mass density,"293.15 K, m1 = 2",1074.1 ± 0.2 kg/m3
same,mass density,"293.15 K, m1 = 2.5",1091.4 ± 0.2 kg/m3
same,mass density,"293.15 K, m1 = 3",1107.8 ± 0.2 kg/m3
same,mass density,"293.15 K, m1 = 3.5",1123.9 ± 0.3 kg/m3
same,mass density,"293.15 K, m1 = 4",1139.2 ± 0.3 kg/m3
same,viscosity,"303.15 K, m1 = 0.5",0.835 ± 0.008 mPa·s
same,viscosity,"303.15 K, m1 = 1",0.873 ± 0.008 mPa·s
same,viscosity,"303.15 K, m1 = 1.5",0.918 ± 0.008 mPa·s
same,viscosity,"303.15 K, m1 = 2",0.966 ± 0.009 mPa·s
same,viscosity,"303.15 K, m1 = 2.5",1.021 ± 0.009 mPa·s
same,viscosity,"303.15 K, m1 = 3",1.077 ± 0.01 mPa·s
same,viscosity,"303.15 K, m1 = 3.5",1.14 ± 0.01 mPa·s
same,viscosity,"303.15 K, m1 = 4",1.208 ± 0.011 mPa·s
same,mass density,"303.15 K, m1 = 0.5",1015.7 ± 0.2 kg/m3
same,mass density,"303.15 K, m1 = 1",1034.4 ± 0.2 kg/m3
same,mass density,"303.15 K, m1 = 1.5",1052.6 ± 0.2 kg/m3
same,mass density,"303.15 K, m1 = 2",1070.1 ± 0.2 kg/m3
same,mass density,"303.15 K, m1 = 2.5",1087.2 ± 0.2 kg/m3
same,mass density,"303.15 K, m1 = 3",1103.4 ± 0.2 kg/m3
same,mass density,"303.15 K, m1 = 3.5",1119.2 ± 0.3 kg/m3
same,mass density,"303.15 K, m1 = 4",1134.4 ± 0.3 kg/m3
same,viscosity,"313.15 K, m1 = 0.5",0.688 ± 0.007 mPa·s
same,viscosity,"313.15 K, m1 = 1",0.722 ± 0.007 mPa·s
same,viscosity,"313.15 K, m1 = 1.5",0.76 ± 0.007 mPa·s
same,viscosity,"313.15 K, m1 = 2",0.802 ± 0.007 mPa·s
same,viscosity,"313.15 K, m1 = 2.5",0.848 ± 0.008 mPa·s
same,viscosity,"313.15 K, m1 = 3",0.895 ± 0.008 mPa·s
same,viscosity,"313.15 K, m1 = 3.5",0.945 ± 0.009 mPa·s
same,viscosity,"313.15 K, m1 = 4",1 ± 0.009 mPa·s
same,mass density,"313.15 K, m1 = 0.5",1011.9 ± 0.2 kg/m3
same,mass density,"313.15 K, m1 = 1",1030.4 ± 0.2 kg/m3
same,mass density,"313.15 K, m1 = 1.5",1048.4 ± 0.2 kg/m3
same,mass density,"313.15 K, m1 = 2",1065.7 ± 0.2 kg/m3
same,mass density,"313.15 K, m1 = 2.5",1082.5 ± 0.2 kg/m3
same,mass density,"313.15 K, m1 = 3",1098.6 ± 0.2 kg/m3
same,mass density,"313.15 K, m1 = 3.5",1114.3 ± 0.3 kg/m3
same,mass density,"313.15 K, m1 = 4",1129.3 ± 0.3 kg/m3
O [water] + O=C[C@H](O)[C@@H](O)[C@H](O)[C@H](O)CO,viscosity,"293.15 K, m2 = 0",1.002 ± 0.009 mPa·s
same,viscosity,"303.15 K, m2 = 0",0.797 ± 0.007 mPa·s
same,viscosity,"313.15 K, m2 = 0",0.653 ± 0.006 mPa·s
O [water] + [Cl-].[Na+],viscosity,"293.15 K, m2 = 0",1.002 ± 0.009 mPa·s
same,viscosity,"303.15 K, m2 = 0",0.797 ± 0.007 mPa·s
same,viscosity,"313.15 K, m2 = 0",0.653 ± 0.006 mPa·s
